Patent US6498181B1, “Synergistic tumorcidal response induced by histamine” (Maxim Pharmaceuticals, priority 1999, dated 2002)
Where two headings read alike, the source gives them in different places.

Columns and labels:
[1] = Experimental: Five patients suffering from acute myleogenous leukemia (AML) in remission received treatment with histamine dihydrochloride diluted in sterile sodium chloride. Histamine was administered morning and night at separate subcutaneous injection sites over a period of 21 consecutive days. The histamine was given as subcutaneous injections using 1 ml syringes containing […] of histamine per ml. The histamine treatment was given twice daily (morning and night) at a dosage of 0.4 to 0.7 mg histamine per injection (i.e., a daily total dose of histamine of 0.8 to 1.4 mg per day).
Peripheral blood venous samples were drawn in 10 ml heparinized test tubes before the onset of treatment and weekly thereafter. The samples were drawn at least 8 hours after the last injections of histamine. The concentration of histamine in the whole blood samples was analyzed by the use of a double antibody radioimmunoassay kit obtained from Bionerica, Inc., Newport Beach, Calif. 92663 (catalog number 1051). The manufacturer's instructions provided with the kit, dated June, 1989, were followed. Blood histamine levels were measured at the indicated times.

prostate tumor [2] = conditions: histamine s.c. 0.5-2.0 mg per day one week before surgery, blood histamine kept at at least about 0.2 μM after
Experimental: Accordingly, a pharmaceutically acceptable form of histamine in a sterile carrier solution is injected subcutaneously into a patient suffering from prostate cancer for one week (0.5-2.0 mg per day) prior to surgery.
Once the tumor is removed, circulating levels of blood histamine are maintained at at least about 0.2 μM until a complete response is observed. The tumorcidal response is evaluated by determining the level of PSA antigen in the patient over time according to conventional methods.

prostate tumor [3] = conditions: histamine s.c. 0.5-2.0 mg per day one week before external beam radiation (60-70 Gy), continued after
Experimental: The tumorcidal response is evaluated by determining the level of PSA antigen in the patient over time according to conventional methods.

breast cancer = conditions: histamine s.c. 0.5-1.0 mg per injection 1-2 times per day with humanized 131I labeled p185^HER-2 antibody
Experimental: Accordingly, a pharmaceutically acceptable form of histamine in a sterile carrier solution is injected subcutaneously into the patient for one week (0.5-1.0 mg per injection 1-2 times per day) prior to antibody therapy.
The tumorcidal response is evaluated by determining the level of p185^HER-2 receptor in the patient over time according to conventional methods. (Quak and van Dongen, Eur. Arch. Otorhinolaryngol 251:1-5(1994)).

melanoma = conditions: histamine s.c. 0.5-1.0 mg per injection 1-2 times per day with vaccine of killed mixture of three melanomic cell lines
From the text: (Quak and van Dongen, Eur. Arch. Otorhinolaryngol 251:1-5(1994)).

[4] = tested on: human SK-N-SH neuroblastoma xenografts; conditions: histamine 0.5 mg per day tail vein with 10 μCi 131I labeled BW575/9 mAb, versus BW575/9 by itself
[5] = Effect of duration of histamine administration on efficacy and side effects; conditions: administered over less than 1 to 3 minutes; anaphalaxis, heart failure, broncospasm, flushing, headache etc.
[6] = tested on: follicular non-Hodgkins lymphoma; conditions: cited from earlier work

circulating blood histamine concentration following histamine administration ([1]; five AML patients in remission, s.c. 0.4 to 0.7 mg per injection twice daily, 21 days, samples at least 8 hours after last injection, less than 0.2 μM at start)	Compound	persistence of circulating blood histamine levels ([1]; even after histamine administration was discontinued)	tumorcidal response (PSA antigen level over time) (prostate tumor [2])	tumorcidal response (PSA antigen level over time) (prostate tumor [3])	tumorcidal response (p185^HER-2 receptor level over time) (breast cancer)	tumorcidal response (presence of melanoma over time) (melanoma)	tumorcidal response [4]	side effects on rapid administration [5]	treatment outcome in clinical trials [6]
at least 0.2 μM	NCCc1c[nH]cn1 [histamine]	remained elevated for sustained periods of time	synergistic tumorcidal response is observed	synergistic tumorcidal response is observed	synergistic tumorcidal response is observed	synergistic tumorcidal response is observed	greater tumorcidal response	more pronounced and serious sides effects	–
–	^131I labeled anti-B1 (Bexxar) mAb: 131I radiolabeled mAb raised to the CD-20 antigens expressed on the surface of mature B-cells	–	–	–	–	–	–	–	successful in treating follicular non-Hodgkins lymphoma
